Measurements as given in patent publication US5260447A, “Polyhydroxycyclopentane derivatives, their preparation and their therapeutic use” (Sankyo Company, Limited, priority 1992, dated 1993).

Key:
β-glucosidase = assay: Inhibitory activity against β-glucosidase (p-nitrophenyl-β-D-glucopyranoside hydrolysis, absorbance at 405 nm); assay type: biochemical; conditions: pH 5.6, 37° C., 15 min preincubation, 20 min reaction; enzyme from almonds
From the text: Inhibitory activity of 5-amino-1-(hydroxymethyl)cyclopentane-1,2,3,4-tetraol against β-glucosidase
Samples of β-glucosidase (separated from almonds), p-nitrophenyl-β-D-glucopyranoside, deoxynojirimycin and castanospermine used in this experiment were all purchased from Sigma Chemicals Co.
The test compounds used were 5-amino-1-(hydroxymethyl)cyclopentane-1,2,3,4-tetraol [compound (I)], and deoxynojirimycin or castanospermine, both of which are known compounds having this type of activity.
A mixture of 0.01 unit/ml of β-glucosidase and 100 μl of a buffer solution (pH 5.6) comprising 20 mM of citric acid, 40 mM of disodium phosphate and the compound under test was allowed to stand at 37° C. for 15 minutes. At the end of this time, 50 μl of a buffer solution containing 3 mg/ml of p-nitrophenyl-β-D-glucopyranoside were added to the mixture, which was then allowed to react at 37° C. for 20 minutes. 20 μl of a 1M glycine/sodium hydroxide buffer solution (pH 10.4) were added to the reaction mixture, and the quantity of p-nitrophenol liberated was monitored by absorbance at 405 nm. Table 7 lists the concentrations β-glucosidase by 50% (IC50).

rat sucrase = biological target: T1, rat sucrase (Rattus norvegicus, UniProt P23739); assay: Inhibitory activity against rat sucrase (brush border membrane enzyme of rat small intestine, glucose liberated at 492 nm); assay type: biochemical, rat (Wistar strain); conditions: pH 6.2, 37°, 20 minutes; substrate sucrose; read-out: concentration required to inhibit the activity of rat sucrase by 50% (IC50) (converted)
T1 construct: a brush border membrane enzyme solution of a rat small intestine was prepared from the small intestines; from tissue; host or cells: small intestine brush border membrane, male Wistar rats
T1 sequence (P23739 1014-1841 limits assumed): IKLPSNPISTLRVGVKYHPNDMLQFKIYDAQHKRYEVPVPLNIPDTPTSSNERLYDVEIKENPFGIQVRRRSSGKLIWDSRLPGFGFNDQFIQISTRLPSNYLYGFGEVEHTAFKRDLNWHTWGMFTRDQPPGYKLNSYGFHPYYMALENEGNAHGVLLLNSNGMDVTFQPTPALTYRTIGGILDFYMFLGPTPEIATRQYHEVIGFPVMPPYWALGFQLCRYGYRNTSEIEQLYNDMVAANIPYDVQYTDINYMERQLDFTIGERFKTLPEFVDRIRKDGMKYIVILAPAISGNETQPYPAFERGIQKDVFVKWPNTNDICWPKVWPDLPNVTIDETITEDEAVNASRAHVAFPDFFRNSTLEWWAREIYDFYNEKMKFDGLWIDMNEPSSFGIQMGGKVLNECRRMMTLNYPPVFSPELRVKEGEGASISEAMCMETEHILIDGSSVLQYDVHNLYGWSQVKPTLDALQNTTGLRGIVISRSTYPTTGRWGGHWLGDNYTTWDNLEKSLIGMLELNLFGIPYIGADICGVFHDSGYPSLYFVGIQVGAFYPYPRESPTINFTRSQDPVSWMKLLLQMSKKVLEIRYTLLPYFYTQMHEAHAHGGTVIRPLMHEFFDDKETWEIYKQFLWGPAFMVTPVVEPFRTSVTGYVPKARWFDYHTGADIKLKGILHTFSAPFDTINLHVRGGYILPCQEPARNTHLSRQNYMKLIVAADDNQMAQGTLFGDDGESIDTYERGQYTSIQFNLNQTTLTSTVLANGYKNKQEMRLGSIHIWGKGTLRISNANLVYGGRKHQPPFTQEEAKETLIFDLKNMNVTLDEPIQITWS
T1 sequence (P23739 1-1013 partner limits assumed): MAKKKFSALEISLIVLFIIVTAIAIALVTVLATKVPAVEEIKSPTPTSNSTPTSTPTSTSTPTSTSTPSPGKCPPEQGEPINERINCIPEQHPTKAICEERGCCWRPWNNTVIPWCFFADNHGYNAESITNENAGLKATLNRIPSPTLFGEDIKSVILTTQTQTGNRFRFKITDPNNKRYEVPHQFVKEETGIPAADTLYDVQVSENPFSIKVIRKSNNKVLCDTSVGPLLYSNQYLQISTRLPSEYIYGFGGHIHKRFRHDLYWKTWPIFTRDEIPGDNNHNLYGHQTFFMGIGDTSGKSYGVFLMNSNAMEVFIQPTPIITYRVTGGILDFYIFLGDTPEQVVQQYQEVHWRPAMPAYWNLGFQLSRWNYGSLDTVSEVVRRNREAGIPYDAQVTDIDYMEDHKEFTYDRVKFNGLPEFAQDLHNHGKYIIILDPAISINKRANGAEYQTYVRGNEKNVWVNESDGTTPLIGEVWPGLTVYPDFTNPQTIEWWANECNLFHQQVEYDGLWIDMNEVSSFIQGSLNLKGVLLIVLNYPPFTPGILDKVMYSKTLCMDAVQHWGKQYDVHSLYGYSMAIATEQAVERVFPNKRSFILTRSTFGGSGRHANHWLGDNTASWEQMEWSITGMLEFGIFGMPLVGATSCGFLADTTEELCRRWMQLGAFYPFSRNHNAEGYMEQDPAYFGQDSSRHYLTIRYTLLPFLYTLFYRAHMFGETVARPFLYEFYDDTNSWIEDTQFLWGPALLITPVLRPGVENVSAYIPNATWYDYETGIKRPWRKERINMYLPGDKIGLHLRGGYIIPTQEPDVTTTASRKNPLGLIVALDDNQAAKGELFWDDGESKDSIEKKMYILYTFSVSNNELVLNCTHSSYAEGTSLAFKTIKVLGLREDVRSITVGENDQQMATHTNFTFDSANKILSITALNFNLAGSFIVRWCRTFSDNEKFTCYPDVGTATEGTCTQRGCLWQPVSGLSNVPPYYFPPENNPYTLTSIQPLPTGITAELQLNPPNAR
Description: Inhibitory activity of 2-amino-4-(hydroxymethyl)-3a-5,6,6a-tetrahydro-4H-cyclopent[d]oxazole-4,5,6-triol [compound (II)] against rat sucrase
According to the method of M. Kessler et al. Biochimica et Biophysica Acta, 506, 136-154(1978)], a brush border membrane enzyme solution of a rat small intestine was prepared from the small intestines of three male rats of the Wistar strain and suspended in 3 ml of physiological saline.
A sample of 4-aminoantipyrine (A 4382) was purchased from Sigma Chemical Co., and samples of peroxidase (Grade I) and glucose oxidase (Grade I) were purchased from Boehringer Mannheim Co. A buffer solution (pH 6.2) comprising 20 mM of citric acid and 40 mM of disodium phosphate was used as the diluent in the following experiment.
Each well of a micro-titer plate with 96 wells (a product of Falcon Co.) was filled with 130 μl in all of a mixture which contained 0.2 mg of bovine serum albumin (Sigma, A 7906), 3 units of glucose oxidase, 0.132 unit of peroxidase, 20 μg of 4-aminoantipyrine, 40 μg of phenol, 3 μ mole of sucrose and a test compound. To the well were added 20 μl of 100-fold diluted solution of a brush border membrane enzyme solution of rat small intestine. The mixture was allowed to react at 37° for 20 minutes and the quantity of glucose liberated was monitored by absorbance at 492 nm. […]

Solubility = assay type: physicochemical
silkworm trehalase = biological target: T2, silkworm trehalase (Bombyx mori, UniProt P32358); assay: Inhibitory activity against silkworm trehalase (crude enzyme from silkworm larvae, glucose determination); assay type: biochemical; conditions: pH 5.6, 37° C., 15 min preincubation, 15 min reaction; substrate trehalose; read-out: concentration needed to inhibit the enzyme activity by 50% (IC50), silkworm trehalase (converted)
T2 construct: Ten silkworm larvae of the fifth instar (total weight 44 g) were homogenized; from tissue; host or cells: whole silkworm larvae, fifth instar; acetone precipitate of homogenate supernatant
T2 sequence (P32358 16-579): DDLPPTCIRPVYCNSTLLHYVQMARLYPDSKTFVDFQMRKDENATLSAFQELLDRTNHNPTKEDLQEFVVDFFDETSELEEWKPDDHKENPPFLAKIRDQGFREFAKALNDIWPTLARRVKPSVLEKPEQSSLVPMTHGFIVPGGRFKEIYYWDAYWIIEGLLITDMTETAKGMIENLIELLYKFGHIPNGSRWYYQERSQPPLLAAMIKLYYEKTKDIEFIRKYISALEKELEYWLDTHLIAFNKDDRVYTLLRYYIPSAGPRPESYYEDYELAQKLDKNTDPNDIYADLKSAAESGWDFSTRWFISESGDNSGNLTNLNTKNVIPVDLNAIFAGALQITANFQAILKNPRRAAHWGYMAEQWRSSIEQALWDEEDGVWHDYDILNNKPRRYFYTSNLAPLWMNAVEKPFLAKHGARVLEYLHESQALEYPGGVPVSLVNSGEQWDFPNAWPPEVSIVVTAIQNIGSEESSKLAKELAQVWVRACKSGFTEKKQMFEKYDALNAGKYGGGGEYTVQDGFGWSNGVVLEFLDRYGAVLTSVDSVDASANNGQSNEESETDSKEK
Description: Inhibitory activity of trehazolin against silkworm trehalase
Ten silkworm larvae of the fifth instar (total weight 44 g) were homogenized using a Polytrone (trade mark) homogenizer in 120 ml of a buffer solution (pH 5.6) prepared using 20 mM of citric acid and 40 mM of disodium phosphate for 2 minutes, whilst ice-cooling (the same buffer solution was also used hereafter). The homogenized mixture was then centrifuged at a speed of 6,000 rpm for 10 minutes, and the supernatant was separated. 240 ml of acetone were added to 120 ml of the supernatant, whist ice-cooling and stirring, and the resulting mixture was centrifuged at a speed of 9,000 rpm for 20 minutes. The sediment was separated and dissolved in water, and the resulting solution was lyophilized, to give 2.0 g of the crude enzyme.
130 μl of the above buffer solution, 50 μl of a sample solution containing trehazolin at various concentrations and 50 μl of a silkworm enzyme solution prepared as described above and containing 4 mg/ml of the enzyme were placed in a test-tube, and the mixture was shaken on a water bath kept at 37° C. for 15 minutes. […]
The reaction was conducted using glucose C-test Wako (a product of Wako Pure Chemical Industries Ltd.) and 10-fold quantities of the sample solution over that of the standard procedure.

| 50% inhibitory concentration of β-glucosidase (IC50) (β-glucosidase) [µg/mL] | IC50 (rat sucrase) [µM] | Solubility in acetone (Solubility) | Solubility in chloroform (Solubility) | Solubility in water (Solubility) | SMILES | IC50 (silkworm trehalase) [µM] | Solubility in methanol (Solubility; methanol) |
| --- | --- | --- | --- | --- | --- | --- | --- |
| 15 |  |  |  |  | OC[C@H]1NC[C@H](O)[C@@H](O)[C@@H]1O [Deoxynojirimycin, deoxynojirimycin] |  |  |
|  | 88.2 | insoluble | insoluble | soluble | NC1=NC2C(O1)C(O)C(O)C2(O)CO (stereo not drawn) [(II), 2-amino-4-(hydroxymethyl)-3a,5,6,6a-tetrahydro-4H-cyclopent[d]oxazole-4,5,6-triol] |  |  |
| 1.0 |  | insoluble | insoluble | soluble | NC1C(O)C(O)C(O)C1(O)CO (stereo not drawn) [Compound (I), 5-amino-1-(hydroxymethyl)cyclopentane-1,2,3,4-tetraol] |  |  |

| SMILES | 50% inhibitory concentration of β-glucosidase (IC50) (β-glucosidase) [µg/mL] | IC50 (rat sucrase) [µM] | Solubility in acetone (Solubility) | Solubility in chloroform (Solubility) | Solubility in water (Solubility) | IC50 (silkworm trehalase) [µM] | Solubility in methanol (Solubility; methanol) |
| --- | --- | --- | --- | --- | --- | --- | --- |
| OCC1OC(NC2=NC3C(O2)C(O)C(O)C3(O)CO)C(O)C(O)C1O (stereo not drawn) [trehazolin, reference compound] |  |  | insoluble | insoluble | soluble | 0.00546 | soluble |
| O[C@H]1[C@H](O)[C@@H](O)CN2CC[C@H](O)[C@H]12 [Castanospermine, castanospermine] | 4.3 |  |  |  |  |  |  |
